Source: US11932626B2, “2-pyrimidone analogs as potent antiviral agents against Alphaviruses” (priority 2020, dated 2024)

What was measured:
[1] = tested on: VEEV; assay: microbe, parasite or virus in culture; format: cell-based; settings: Venezuelan equine encephalitis virus, NHDF; for EC90: read-out: VEEV EC90; for log reduction at 10 µM: read-out: VEEV VTR
[2] = in vitro; settings: human
[3] = tested on: CHIKV linked NanoLuc luciferase reporter; assay: microbe, parasite or virus in culture; format: cell-based; settings: Chikungunya virus, read-out: CHIKV EC50
[4] = tested on: Chikungunya virus (CHIKV) strain SL15649; assay: CHIKV-infected mice, 10 days oral treatment: footpad swelling and viremia
[5] = tested on: Chikungunya virus (CHIKV) strain SL15649; assay: CHIKV-infected mice, 5 days oral treatment: tissue viral loads
[6] = tested on: CHIKV; assay: CHIKV virus titer reduction (VTR) assay in NHDF cells; format: cell-based; settings: Chikungunya virus; for log reduction at 10 µM: CHIKV titer reduction at 10 μM, normal human dermal fibroblasts (NHDF) cells; for EC90: effective concentration of 90% inhibition of virus in a VTR assay, NHDF cells
[7] = tested on: VEEV (TC-83); assay: microbe, parasite or virus in culture; format: cell-based; settings: Venezuelan equine encephalitis virus, read-out: VEEV EC50

| Compound | EC90 [1] | log reduction at 10 µM [1] | CC50 [2] | EC50 [3] | Adverse toxicity ([4]; mice treated three times per day for 10 days per os) | Footpad swelling in the ipsilateral foot ([4]; mice, 40 mg/kg 3× daily p.o., days 3-8, compared to vehicle treated mice) | Viral loads in serum ([4]; mice, 40 mg/kg 3× daily p.o., serum at 3 days post infection, p=0.0003) | Tissue distribution ([4]; mice, per os three times per day) | Adverse toxicity ([5]; mice treated three times per day for 5 days per os) | Infectious viral loads in Ipsilateral ankle ([5]; mice, 40 mg/kg 3× daily p.o., 5 dpi, p<0.0001) | Infectious viral loads in Contralateral ankle ([5]; mice, 40 mg/kg 3× daily p.o., 5 dpi, p=0.0009) | log reduction at 10 µM [6] | EC90 [6] | EC50 [7] |
| --- | --- | --- | --- | --- | --- | --- | --- | --- | --- | --- | --- | --- | --- | --- |
| O=C(COc1cc[nH]c(=O)n1)NC12CC3CC(CC(C3)C1)C2 [Compound No. 7, N-(Adamantan-1-Yl)-2-((2-Oxo-1,2-Dihydropyrimidin-4-Yl)Oxy)Acetamide] | 1.1 µM | 1.79 | > 40 µM | 3.2 µM | No adverse toxicity was observed | reduced swelling in the ipsilateral foot at days 3, 4, 5, 6, 7, and 8 | did not have detectable viral loads in serum samples | distributed to a number of tissue types including joints and muscles | No adverse toxicity was observed | reduced infectious viral loads | reduced infectious viral loads | 3.68 | 0.7 µM | 38.8 µM |
| CC(C)Oc1cc(OCC(=O)NC23CC4CC(CC(C4)C2)C3)nc(=O)[nH]1 [compound 45, N-(Adamantan-1-Yl)-2-((6-Isopropoxy-2-Oxo-1,2-Dihydropyrimidin-4-Yl)Oxy)Acetamide] | 0.98 µM | 2.62 | > 40 µM | 0.429 µM | – | – | – | – | – | – | – | 5.58 | 0.08 µM | 8.95 µM |
| COc1[nH]c(=O)nc(OCC(=O)NC23CC4CC(CC(C4)C2)C3)c1F [compound 46, N-(adamantan-1-yl)-2-((5-fluoro-6-methoxy-2-oxo-1,2-dihydropyrimidin-4-yl)oxy)acetamide] | > 10 µM | 0 | > 40 µM | > 40 µM | – | – | – | – | – | – | – | 0.42 | > 10 µM | > 40 µM |
| O=C(COc1cc(OC2CC(F)(F)C2)[nH]c(=O)n1)NC12CC3CC(CC(C3)C1)C2 [compound 47, N-(Adamantan-1-Yl)-2-((6-(3,3-Difluorocyclobutoxy)-2-Oxo-1,2-Dihydropyrimidin-4-Yl)Oxy)Acetamide] | > 10 µM | 0.28 | > 40 µM | 6.78 µM | – | – | – | – | – | – | – | 5.66 | 0.8 µM | > 40 µM |
| O=C(COc1cc(OC2CC2)[nH]c(=O)n1)NC12CC3CC(CC(C3)C1)C2 [compound 48, N-(Adamantan-1-Yl)-2-((6-Cyclopropoxy-2-Oxo-1,2-Dihydropyrimidin-4-Yl)Oxy)Acetamide] | 0.65 µM | 3.28 | > 40 µM | 0.283 µM | – | – | – | – | – | – | – | 5.51 | 0.06 µM | 3.77 µM |
| COCCOc1cc(OCC(=O)NC23CC4CC(CC(C4)C2)C3)nc(=O)[nH]1 [compound 49, N-(Adamantan-1-Yl)-2-((6-(2-Methoxyethoxy)-2-Oxo-1,2-Dihydropyrimidin-4-Yl)Oxy)Acetamide] | > 10 µM | 0 | > 40 µM | 3.08 µM | – | – | – | – | – | – | – | 3.73 | 1.3 µM | 38.6 µM |
| O=C(COc1nc(=O)[nH]c(OCCO)c1F)NC12CC3CC(CC(C3)C1)C2 [compound 50, N-(adamantan-1-yl)-2-((5-fluoro-6-(2-hydroxyethoxy)-2-oxo-1,2-dihydropyrimidin-4-yl)oxy)acetamide] | > 10 µM | 0.5 | > 40 µM | 25.4 µM | – | – | – | – | – | – | – | 0 | > 10 µM | > 40 µM |
| CC(C)(C)COc1cc(OCC(=O)NC23CC4CC(CC(C4)C2)C3)nc(=O)[nH]1 [compound 51, N-(Adamantan-1-Yl)-2-((6-(Neopentyloxy)-2-Oxo-1,2-Dihydropyrimidin-4-Yl)Oxy)Acetamide] | 0.1 µM | 3.85 | > 40 µM | 7.43 µM | – | – | – | – | – | – | – | 3.77 | 0.75 µM | > 40 µM |
| CC(C)(C#N)COc1cc(OCC(=O)NC23CC4CC(CC(C4)C2)C3)nc(=O)[nH]1 [compound 52, N-(Adamantan-1-Yl)-2-((6-(2-Cyano-2-Methylpropoxy)-2-Oxo-1,2-Dihydropyrimidin-4-Yl)Oxy)Acetamide] | 2.5 µM | 2.5 | > 40 µM | 13.7 µM | – | – | – | – | – | – | – | 2.42 | 2.5 µM | > 40 µM |
| CCOc1cc(OCC(=O)NC23CC4CC(CC(C4)C2)C3)nc(=O)[nH]1 [compound 55, N-(Adamantan-1-Yl)-2-((6-Ethoxy-2-Oxo-1,2-Dihydropyrimidin-4-Yl)Oxy)Acetamide] | > 10 µM | 0.05 | > 40 µM | 0.179 µM | – | – | – | – | – | – | – | 4 | 0.14 µM | 2.78 µM |
| CCC(C)Oc1cc(OCC(=O)NC23CC4CC(CC(C4)C2)C3)nc(=O)[nH]1 (stereo not drawn) [compound 56, N-(adamantan-1-yl)-2-((6-(sec-butoxy)-2-oxo-1,2-dihydropyrimidin-4-yl)oxy)acetamide] | > 10 µM | 0 | > 40 µM | 0.701 µM | – | – | – | – | – | – | – | 6.6 | 0.17 µM | 16.2 µM |
